Key:
Type in all cases: in vivo
[1] = system: field corn (Zea mays L., var. Dekalb 535, CORN); assay: Pre-emerge test, crop safety; conditions: pre-emerge, 14 days after application, scale 0-100
Text: (§1) A standard greenhouse herbicide activity screening system was used to evaluate the herbicidal efficacy and crop safety of these test compounds. Seven broadleaf weed species including redroot pigweed (Amaranthus retroflexus, AMARE, velvetleaf (Abutilon theophrasti, ABUTH), sicklepod (Cassia obtusifolia, CASOB), ivyleaf morningglory (Ipomoea hederacea, IPOHE), lambsquarters (Chenopodium album, CHEAL), common ragweed (Ambrosia artemisizfolia L., AMBEL), and cocklebur (Xanthium strumarium, XANST) were used as test species. Four grass weed species including green foxtail (Setaria viridis, SETVI), barnyardgrass (Echinochloa crus-galli, ECHCG), johnsongrass (Sorghum halepense, SORHA), and large crabgrass (Digitaria sanguinalis, DIGSA) were also used. In addition, three crop species, field corn (Zea mays L., var. Dekalb 535, CORN), soybean (Glycine max L., var. Pella 86, SOY), and is upland rice (Oryza sp., var. Tebonnet, RICE) were included.
(§2) All plants were grown in 10 cm square plastic pots which were filled with a sandy loam soil mix. For pre-emerge tests, seeds were planted one day prior to application of the test compounds. For post-emerge tests, seeds were planted 8-21 days prior to the test to allow emergence and good foliage development prior to application of the test substances. At the time of the post-emerge application, plants of all species were usually at the 2-3 leaf stage of development.
(§3) All test compounds Were dissolved in acetone and applied to the test units in a volume of 187 l /ha. Test materials were applied at rates ranging from 15 g ai/ha to 1000 g ai/ha using a track sprayer equipped with a TJ8001E even flow flat fan spray nozzle. Plants were arranged on a shelf so that the top of the canopy (post-emerge) or top of the soil surface (pre-emerge) was 40-45 cm below the nozzle. Pressurized air was used to force the test solution through the nozzle as it was mechanically advanced (via electrically driven chain drive) over the top of all test plants/pots. This application simulates a typical commercial field herbicide application.
(§4) In the post-emerge test, a commercial non-ionic surfactant was also included (0.25% v/v) to enhance wetting of the leaf surfaces of target plants. Immediately after application, test units of the pre-emerge applications were watered at the soil surface to incorporate the test materials. Subsequently, these test units were bottom-watered. Post-emerge test units were always bottom-watered.
(§5) At 14 days after application of the test materials, phytotoxicity ratings were recorded. A rating scale of 0-100 was used as previously described in Research Methods in Weed Science, 2nd edition, B. Truelove, Ed., Southern Weed Science Society, Auburn University, Auburn, Ala. 1977. Briefly, “0” corresponds to no damage and “100” corresponds to complete death of all plants in the test unit. This scale was used both to determine efficacy against weed species and damage to crop species. Herbicide activity data for various compounds of this invention, which are shown by compound No. in Tables 1-8, are shown in Tables 11 and 12.

[2] = system: upland rice (Oryza sp., var. Tebonnet, RICE); assay: Pre-emerge test, crop safety; conditions: pre-emerge, 14 days after application, scale 0-100
Text: as §1, §2, §3, §4, §5

[3] = system: redroot pigweed (Amaranthus retroflexus, AMARE); assay: Pre-emerge test, greenhouse herbicide activity screening; conditions: pre-emerge, 14 days after application, scale 0-100
Text: as §1, §2
as §3, with “Test materials were applied at rates ranging from 15 g ai/ha to 1000 g ai/ha using a track sprayer equipped with a TJ8001E even flow flat fan spray nozzle.” left out
as §4, §5

[4] = system: velvetleaf (Abutilon theophrasti, ABUTH); assay: Post-emerge test, greenhouse herbicide activity screening; conditions: post-emerge, 14 days after application, rating scale 0-100
Text: as §1, §2, §3, §4, §5

[5] = system: green foxtail (Setaria viridis, SETVI); assay: as above; conditions: post-emerge, 14 days after application, rating scale 0-100
Text: as §1, §2, §3, §4, §5

[6] = system: lambsquarters (Chenopodium album, CHEAL); assay: as above; conditions: post-emerge, 14 days after application, rating scale 0-100
Text: as §1, §2, §3, §4, §5

[7] = system: redroot pigweed (Amaranthus retroflexus, AMARE); assay: as above; conditions: post-emerge, 14 days after application, rating scale 0-100
Text: as §1, §2, §3, §4, §5

[8] = system: sicklepod (Cassia obtusifolia, CASOB); assay: as above; conditions: post-emerge, 14 days after application, rating scale 0-100
Text: as §1, §2, §3, §4, §5

[9] = system: ivyleaf morningglory (Ipomoea hederacea, IPOHE); assay: as above; conditions: post-emerge, 14 days after application, rating scale 0-100
Text: as §1, §2, §3, §4, §5

[10] = system: large crabgrass (Digitaria sanguinalis, DIGSA); assay: as above; conditions: post-emerge, 14 days after application, rating scale 0-100
Text: as §1, §2, §3, §4, §5

[11] = system: barnyardgrass (Echinochloa crus-galli, ECHCG); assay: as above; conditions: post-emerge, 14 days after application, rating scale 0-100
Text: as §1, §2, §3, §4, §5

[12] = system: velvetleaf (Abutilon theophrasti, ABUTH); assay: Pre-emerge test, greenhouse herbicide activity screening; conditions: pre-emerge, 14 days after application, scale 0-100
Text: as §1, §2, §3, §4, §5

[13] = system: green foxtail (Setaria viridis, SETVI); assay: as above; conditions: pre-emerge, 14 days after application, scale 0-100
Text: as §1, §2, §3, §4, §5

[14] = system: lambsquarters (Chenopodium album, CHEAL); assay: as above; conditions: pre-emerge, 14 days after application, scale 0-100
Text: as §1, §2, §3, §4, §5

[15] = system: sicklepod (Cassia obtusifolia, CASOB); assay: as above; conditions: pre-emerge, 14 days after application, scale 0-100
Text: as §1, §2, §3, §4, §5

[16] = system: ivyleaf morningglory (Ipomoea hederacea, IPOHE); assay: as above; conditions: pre-emerge, 14 days after application, scale 0-100
Text: as §1, §2, §3, §4, §5

[17] = system: large crabgrass (Digitaria sanguinalis, DIGSA); assay: as above; conditions: pre-emerge, 14 days after application, scale 0-100
Text: as §1, §2, §3, §4, §5

[18] = system: barnyardgrass (Echinochloa crus-galli, ECHCG); assay: as above; conditions: pre-emerge, 14 days after application, scale 0-100
Text: as §1, §2, §3, §4, §5

[19] = system: field corn (Zea mays L., var. Dekalb 535, CORN); assay: Post-emerge test, crop safety; conditions: post-emerge, 14 days after application, rating scale 0-100
Text: as §1, §2, §3, §4, §5

[20] = system: upland rice (Oryza sp., var. Tebonnet, RICE); assay: Post-emerge test, crop safety; conditions: post-emerge, 14 days after application, rating scale 0-100
Text: as §1, §2, §3, §4, §5

COc1c(Cl)cc(F)c(-n2c(=O)cc(C(F)(F)F)n(C)c2=O)c1NC(=O)COc1ccc(Cl)cc1 [2-135]
phytotoxicity rating CORN (crop damage) ([1]; 63 g ai/ha): 0 | phytotoxicity rating CORN (crop damage) ([1]; 250 g ai/ha): 0 | phytotoxicity rating RICE (crop damage) ([2]; 63 g ai/ha): 0 | phytotoxicity rating RICE (crop damage) ([2]; 250 g ai/ha): 35 | phytotoxicity rating AMARE ([3]; 63 g ai/ha): 95 | phytotoxicity rating AMARE ([3]; 250 g ai/ha): 100 | ABUTH phytotoxicity rating ([4]; 63 g ai/ha): 100 | ABUTH phytotoxicity rating ([4]; 250 g ai/ha): 100 | SETVI phytotoxicity rating ([5]; 63 g ai/ha): 15 | SETVI phytotoxicity rating ([5]; 250 g ai/ha): 40 | CHEAL phytotoxicity rating ([6]; 63 g ai/ha): 100 | CHEAL phytotoxicity rating ([6]; 250 g ai/ha): 100 | AMARE phytotoxicity rating ([7]; 63 g ai/ha): 100 | AMARE phytotoxicity rating ([7]; 250 g ai/ha): 100 | CASOB phytotoxicity rating ([8]; 63 g ai/ha): 70 | CASOB phytotoxicity rating ([8]; 250 g ai/ha): 100 | IPOHE phytotoxicity rating ([9]; 63 g ai/ha): 100 | IPOHE phytotoxicity rating ([9]; 250 g ai/ha): 95 | DIGSA phytotoxicity rating ([10]; 63 g ai/ha): 0 | DIGSA phytotoxicity rating ([10]; 250 g ai/ha): 10 | ECHCG phytotoxicity rating ([11]; 63 g ai/ha): 0 | ECHCG phytotoxicity rating ([11]; 250 g ai/ha): 20 | phytotoxicity rating ABUTH ([12]; 63 g ai/ha): 90 | phytotoxicity rating ABUTH ([12]; 250 g ai/ha): 100 | phytotoxicity rating SETVI ([13]; 63 g ai/ha): 80 | phytotoxicity rating SETVI ([13]; 250 g ai/ha): 100 | phytotoxicity rating CHEAL ([14]; 63 g ai/ha): 100 | phytotoxicity rating CHEAL ([14]; 250 g ai/ha): 100 | phytotoxicity rating CASOB ([15]; 63 g ai/ha): 10 | phytotoxicity rating CASOB ([15]; 250 g ai/ha): 60 | phytotoxicity rating IPOHE ([16]; 63 g ai/ha): 20 | phytotoxicity rating IPOHE ([16]; 250 g ai/ha): 100 | phytotoxicity rating DIGSA ([17]; 63 g ai/ha): 60 | phytotoxicity rating DIGSA ([17]; 250 g ai/ha): 95 | phytotoxicity rating ECHCG ([18]; 63 g ai/ha): 10 | phytotoxicity rating ECHCG ([18]; 250 g ai/ha): 30 | CORN phytotoxicity rating (crop damage) ([19]; 63 g ai/ha): 10 | CORN phytotoxicity rating (crop damage) ([19]; 250 g ai/ha): 25 | RICE phytotoxicity rating (crop damage) ([20]; 63 g ai/ha): 20 | RICE phytotoxicity rating (crop damage) ([20]; 250 g ai/ha): 40

COc1c(Cl)cc(F)c(-n2c(=O)cc(C(F)(F)F)n(C)c2=O)c1NC(=O)C(C#N)=Cc1ccccc1 [2-136]
phytotoxicity rating CORN (crop damage) ([1]; 63 g ai/ha): 0 | phytotoxicity rating CORN (crop damage) ([1]; 250 g ai/ha): 0 | phytotoxicity rating RICE (crop damage) ([2]; 63 g ai/ha): 0 | phytotoxicity rating RICE (crop damage) ([2]; 250 g ai/ha): 10 | phytotoxicity rating AMARE ([3]; 63 g ai/ha): 40 | phytotoxicity rating AMARE ([3]; 250 g ai/ha): 90 | ABUTH phytotoxicity rating ([4]; 63 g ai/ha): 100 | ABUTH phytotoxicity rating ([4]; 250 g ai/ha): 100 | SETVI phytotoxicity rating ([5]; 63 g ai/ha): 20 | SETVI phytotoxicity rating ([5]; 250 g ai/ha): 30 | CHEAL phytotoxicity rating ([6]; 63 g ai/ha): 95 | CHEAL phytotoxicity rating ([6]; 250 g ai/ha): 100 | AMARE phytotoxicity rating ([7]; 63 g ai/ha): 100 | AMARE phytotoxicity rating ([7]; 250 g ai/ha): 100 | CASOB phytotoxicity rating ([8]; 63 g ai/ha): 60 | CASOB phytotoxicity rating ([8]; 250 g ai/ha): 100 | IPOHE phytotoxicity rating ([9]; 63 g ai/ha): 80 | IPOHE phytotoxicity rating ([9]; 250 g ai/ha): 100 | DIGSA phytotoxicity rating ([10]; 63 g ai/ha): 0 | DIGSA phytotoxicity rating ([10]; 250 g ai/ha): 20 | ECHCG phytotoxicity rating ([11]; 63 g ai/ha): 0 | ECHCG phytotoxicity rating ([11]; 250 g ai/ha): 10 | phytotoxicity rating ABUTH ([12]; 63 g ai/ha): 80 | phytotoxicity rating ABUTH ([12]; 250 g ai/ha): 100 | phytotoxicity rating SETVI ([13]; 63 g ai/ha): 10 | phytotoxicity rating SETVI ([13]; 250 g ai/ha): 40 | phytotoxicity rating CHEAL ([14]; 63 g ai/ha): 90 | phytotoxicity rating CHEAL ([14]; 250 g ai/ha): 100 | phytotoxicity rating CASOB ([15]; 63 g ai/ha): 0 | phytotoxicity rating CASOB ([15]; 250 g ai/ha): 40 | phytotoxicity rating IPOHE ([16]; 63 g ai/ha): 0 | phytotoxicity rating IPOHE ([16]; 250 g ai/ha): 100 | phytotoxicity rating DIGSA ([17]; 63 g ai/ha): 0 | phytotoxicity rating DIGSA ([17]; 250 g ai/ha): 10 | phytotoxicity rating ECHCG ([18]; 63 g ai/ha): 0 | phytotoxicity rating ECHCG ([18]; 250 g ai/ha): 0 | CORN phytotoxicity rating (crop damage) ([19]; 63 g ai/ha): 15 | CORN phytotoxicity rating (crop damage) ([19]; 250 g ai/ha): 10 | RICE phytotoxicity rating (crop damage) ([20]; 63 g ai/ha): 5 | RICE phytotoxicity rating (crop damage) ([20]; 250 g ai/ha): 10
